Experimental findings from patent publication US20140329797A1, “SUBSTITUTED OXADIAZOLYL PYRIDINONES AND OXADIAZOLYL PYRIDAZINONES AS HIF INHIBITORS” (Bayer Intellectual Property GmbH, priority 2011, published 2014) are described below.

The test system of this assay is HCT 116 cells transfected with a luciferase reporter under the control of an HIF-responsive sequence. The assay is described as follows: HIF-luciferase assay. The class given is cell-based. To be noted: Homo sapiens; HCT 116 HIF-luciferase reporter cells, hypoxia chamber (1% O2), 24 h; in some cases means of up to four individual determinations. The procedure: B-1. HIF-Luciferase Assay
HCT 116 cells were transfected in a stable manner with a plasmid which contained a luciferase reporter under the control of an HIF-responsive sequence. These cells were sown in microtitre plates [20000 cells/cavity in RPMI 1640 medium with 10% foetal calf serum (FCS) and 100 μg/ml of hygromycin]. Incubation was carried out overnight under standard conditions (5% CO2, 21% O2, 37° C., moistened). The following morning the cells were incubated with various concentrations of the test substances (0-10 μmol/l) in a hypoxia chamber (1% O2). After 24 h, Bright Glo reagent (Promega, Wisconsin, USA) was added in accordance with the manufacturer's instructions, and after 5 min the luminescence was measured. Cells which were incubated under normoxia served as background controls.
Broadly, the IC50 is the concentration that gives 50% inhibition. Take `CC(C)(c1ccc(-c2noc(-c3ccc(=O)n(Cc4cccc(C(=O)N5CCC(O)CC5)c4)c3)n2)cc1)C(F)(F)F` [Example 33, 1-{3-[(4-Hydroxypiperidin-1-yl)carbonyl]benzyl}-5-{3-[4-(1,1,1-trifluoro-2-methylpropan-2-yl)phenyl]-1,2,4-oxadiazol-5-yl}pyridin-2(1H)-one]: the IC50 was 6 nM.

In turn, `O=C(c1cccc(Cn2cc(-c3nc(-c4ccc(OC(F)(F)F)cc4)no3)ccc2=O)c1)N1CCOCC1` [Example 34, 1-[3-(Morpholin-4-ylcarbonyl)benzyl]-5-{3-[4-(trifluoromethoxy)phenyl]-1,2,4-oxadiazol-5-yl}pyridin-2(1H)-one] registered an IC50 of 4 nM.

In turn, `CC(C)(c1ccc(-c2noc(-c3ccc(=O)n(Cc4cccc(C(=O)N5CCOCC5)c4)c3)n2)cc1)C(F)(F)F` [Example 35, 1-[3-(Morpholin-4-ylcarbonyl)benzyl]-5-{3-[4-(1,1,1-trifluoro-2-methylpropan-2-yl)phenyl]-1,2,4-oxadiazol-5-yl}pyridin-2(1H)-one] had an IC50 of 20 nM. This IC50 lies about 5-fold higher than the previous one.

`CN1CCN(C(=O)c2cccc(Cn3cc(-c4nc(-c5ccc(OC(F)(F)F)cc5)no4)ccc3=O)c2)CC1` [Example 36, 1-{3-[(4-Methylpiperazin-1-yl)carbonyl]benzyl}-5-{3-[4-(trifluoromethoxy)phenyl]-1,2,4-oxadiazol-5-yl}pyridin-2(1H)-one]: half-maximal inhibition (IC50) was put at 5 nM.

Compound `CN1CCN(C(=O)c2cccc(Cn3cc(-c4nc(-c5ccc(C(C)(C)C(F)(F)F)cc5)no4)ccc3=O)c2)CC1` [Example 37, 1-{3-[(4-Methylpiperazin-1-yl)carbonyl]benzyl}-5-{3-[4-(1,1,1-trifluoro-2-methylpropan-2-yl)phenyl]-1,2,4-oxadiazol-5-yl}pyridin-2(1H)-one] registered a 50% inhibitory concentration (IC50) of 10 nM.

In the case of `O=C(c1cccc(Cn2cc(-c3nc(-c4ccc(OC(F)(F)F)cc4)no3)ccc2=O)c1)N1CCN(C2CC2)CC1` [Example 38, 1-{3-[(4-Cyclopropylpiperazin-1-yl)carbonyl]benzyl}-5-{3-[4-(trifluoromethoxy)phenyl]-1,2,4-oxadiazol-5-yl}pyridin-2(1H)-one], the IC50 was found to be 3 nM.

As to `CC(C)(c1ccc(-c2noc(-c3ccc(=O)n(Cc4cccc(C(=O)N5CCN(C6CC6)CC5)c4)c3)n2)cc1)C(F)(F)F` [Example 39, 1-{3-[(4-Cyclopropylpiperazin-1-yl)carbonyl]benzyl}-5-{3-[4-(1,1,1-trifluoro-2-methylpropan-2-yl)phenyl]-1,2,4-oxadiazol-5-yl}pyridin-2(1H)-one], the IC50 came to 5 nM. Against the preceding compound, the IC50 is about 1.7-fold higher.

The compound `CC(=O)OC1(c2cccc(Cn3cc(-c4nc(-c5ccc(OC(F)(F)F)cc5)no4)ccc3=O)c2)CC1` [Example 40, 1-(3-{[2-Oxo-5-{3-[4-(trifluoromethoxy)phenyl]-1,2,4-oxadiazol-5-yl}pyridin-1(2H)-yl]methyl}phenyl)cyclopropyl acetate] came in with an IC50 of 2.5 nM. This IC50 lies about 2-fold lower than the previous one.

Compound `CC(C)(O)Cc1cccc(Cn2cc(-c3nc(-c4ccc(OC(F)(F)F)cc4)no3)ccc2=O)c1` [Example 41, 1-[3-(2-Hydroxy-2-methylpropyl)benzyl]-5-{3-[4-(trifluoromethoxy)phenyl]-1,2,4-oxadiazol-5-yl}pyridin-2(1H)-one] registered an IC50 of 5 nM.

For the compound `CC(C)(O)Cc1cccc(Cn2cc(-c3nc(-c4ccc(C(C)(C)C(F)(F)F)cc4)no3)ccc2=O)c1` [Example 42, 1-[3-(2-Hydroxy-2-methylpropyl)benzyl]-5-{3-[4-(1,1,1-trifluoro-2-methylpropan-2-yl)phenyl]-1,2,4-oxadiazol-5-yl}pyridin-2(1H)-one], the midpoint of inhibition, the IC50, lay at 8 nM.

`O=c1ccc(-c2nc(-c3ccc(OC(F)(F)F)cc3)no2)cn1Cc1cccc(C2(CO)CC2)c1` [Example 43, 1-{3-[1-(Hydroxymethyl)cyclopropyl]benzyl}-5-{3-[4-(trifluoromethoxy)phenyl]-1,2,4-oxadiazol-5-yl}pyridin-2(1H)-one] gave an IC50 of 10 nM.
